The results in this text go back to patent publication US12479895B2, “C-terminal CDNF and MANF fragments, pharmaceutical compositions comprising same and uses thereof” (MyNeuroCure Oy, priority 2018, dated 2025).

One data set relates to ER stressed SCG neurons. In words: Survival of tunicamycin-treated (ER stressed) SCG sympathetic neurons after microinjection. The data set is classed as cell-based, mice. As to conditions: tunicamycin 2 μM; for survived neurons as % compared to neurons grown in the presence of NGF: Table 1B (FIG. 16), microinjected into cytoplasm, counted after 3 days, CDNF (400). The procedure, abridged:
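Newborn mouse SCG neurons grown 5-6 days with 30 ng/ml NGF, then microinjected with CDNF (FL or C-terminal) plasmids (10 ng/ul, EGFP reporter) or proteins (200 ng/ul, Dextran Texas Red). Tunicamycin (2 μM) added next day. Fluorescent survivors counted blindly after 3 days as % of initial; compared with vector or PBS (ANOVA/Dunnett).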

A further data set deals with dopamine neurons. Briefly: Survival of TH-positive dopamine neurons in dissociated midbrain floor cultures. As to conditions: 5 days; for survived neurons as % compared to neurons grown in the presence of GDNF: Table 3B (FIG. 17), AVG; for protection of dopaminergic neurons in culture (result in words): added to the culture medium, TH-positive neurons counted. The data set is classed as cell-based, mouse. The procedure, abridged:
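Dissociated E13.5 NMRI mouse midbrain floor neurons grown five days in DMEM/F12 with N2, with polypeptides at a range of concentrations, GDNF (100 ng/ml), or nothing. TH-immunopositive neurons were counted by imaging. Values are a percentage of GDNF-maintained TH-positive neurons, as mean ± SEM from at least three independent cultures.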

The subject of another data set is rat 6-OHDA model of PD. Briefly: Neurorestoration study in 6-OHDA model of PD in rats. Format: in vivo. The note with it: subcutaneous injections 50 μg twice a week for 4 weeks starting two weeks post-lesion; p<0.001 vs vehicle.
Another data set has as its system E14 dopamine neurons. In words: Internalization experiment on dopaminergic neurons. The data set is classed as cell-based, Mouse. The note with it: 30,000 cpm of iodinated protein, 37° C., 2 hr, acid wash. As to the method: Mouse E13.5 dopamine neurons grown on the 24 well plate in culture were incubated with 30,000 cpm of iodinated CDNF or C-CDNF per well at 37° C. 2 hr. The cells were transferred to ice and washed once with 0.5 ml of the ice cold media. Then cells were transferred to Eppendorf tubes and washed at 4° C. once with 0.2M acetic acid, 0.5M NaCl, pH 2.8. After centrifugation at 1000 g for 10 min cells were dissolved in 0.5 ml of 0.5 N NaOH and counted on the gamma counter.

Data set [1] has as its system mouse beta cell proliferation. In words: Beta cell proliferation assay. The data set is classed as cell-based. As to conditions: mouse islets cultured in vitro for 5 days. The method, then:
Islets from female, virgin 8 weeks old C57bl6Rcc mice were isolated. Islets were recovered o/n in growth medium and the next day equal numbers of islets/well (70/well) were treated for 5 days with placental lactogen (PL 500 ng/ml), C-MANF, or MANF. Half of the medium was changed daily to fresh medium with growth factors. Edu, a nucleoside analog alternatively to BrdU (Click-iT® Edu proliferation kit, Invitrogen) was added 48 hrs prior to islet harvesting. Islets were broken with trypsin and centrifuged onto glass slides in cytocentrifuge. Cells were fixed after cytospins and proliferating cells stained with Click-iT AlexaFluor azide color reagent, followed by insulin staining (guinea-pig 1:200, Abcam, Cambridge, UK) o/n at +4° C. to detect beta cells. Cells were washed and stained with secondary antibodies conjugated with Alexa Fluor® 488 (1:400, Molecular Probes, Life Technologies, CA, USA). […] Twelve images (10× magnification) were acquired with Fluorescence Zeiss Axiolmager M2 482 epifluorescence microscope equipped with 40×/Plan-Apochromat/0.95 Corr M27 and 63×/Plan-Apochromat/1.40 Oil/M27 and 483 AxioCam HRm camera using AxioVision4 software and analysed by Image Pro Plus software (Media Cybernetics, Bethesda, MD, USA) to quantify number of DAPI-positive nuclei. The relative numbers of proliferating beta cells were quantified and compared to wells of three to five repeats/treatment.

The conditions of data set [2]: rat, in vivo, sc.
Protocol: CDNF, C-CDNF and C-MANF were iodinated with ^125I-Na using the lactoperoxidase method. The protein in question was dissolved in 30 μl of 0.25 M phosphate buffer, pH 7.5, and mixed with ^125I-Na (1 mCi/2.8 μl; 1 mCi=37 mBq; GE Healthcare). The reaction was started by adding lactoperoxidase 10 μl of 50 μg/ml and 0.05% H2O2. The mixture was incubated at room temperature for 20 min and the reaction was stopped by adding 3 volumes of 0.1 M phosphate buffer, pH 7.5, containing 0.1 M NaI, 0.42 M NaCl, and then 25 μl of 2.5% BSA was added. Free iodine and iodinated protein were separated by gel filtration on Sephadex G-25 columns (PM10; GE Healthcare). For column equilibrium and elution, 0.1 M phosphate buffer, pH 7.5, with 1% BSA was used. The iodinated growth factors were sometimes concentrated by using YM-10 Centricon columns (Millipore). The specific activity of ^125I-labeled CDNF, C-CDNF and C-MANF was measured on the Wizard 3 1480 Automatic Gamma Counter (Perkin Elmer, Wallac) and was about 10^8 cpm/μg protein. The labelled protein were kept at 4° C. and used within 3 weeks after labelling.
^125I-CDNF, ^125I C-CDNF or ^125I C-MANF (all proteins at 10^6 cpm in 10 μl) were injected subcutaneously to adult male Wistar rats. […] Radioactivity was analyzed in different brain regions by gamma counter. […] The differences between groups were analyzed ANOVA followed by Tukey-Kramers post hoc test.

Regarding “TLDLASVDLRKMRVAELKQILHSWGEECRACAE (listed as Homo sapiens) [pep15]”, the “survived neurons as % compared to neurons grown in the presence of NGF” value came out at 70.17 % NGF with ER stressed SCG neurons (exp1), 61.81 % NGF in the data set with ER stressed SCG neurons (exp2) and 71.42 % NGF in the data set on ER stressed SCG neurons (exp3). Moreover, the “rescue of ER stressed SCG neurons (result in words)” value with ER stressed SCG neurons (protein or peptide microinjected into the cytoplasm, living fluorescent neurons counted after 3 days) is given as “rescue”. The “survived neurons as % compared to neurons grown in the presence of GDNF” value with dopamine neurons (1 ng/ml) is 73.72 % GDNF; in the data set on dopamine neurons (10 ng/ml), 87.03 % GDNF; in the data set on dopamine neurons (100 ng/ml), 93.53 % GDNF; in the data set with dopamine neurons (1000 ng/ml), 86.15 % GDNF. In the data set on dopamine neurons, the “protection of dopaminergic neurons in culture (result in words)” value is on record as “best protective effect”. The “protection against 6-OHDA-induced impairment in motor imbalance (amphetamine-induced rotational behavior)” value with rat 6-OHDA model of PD is listed as “effective”.

For the molecule “^125I-CDNF: CDNF iodinated with 125I-Na using the lactoperoxidase method”, the “internalization into dopamine neurons (radioactivity inside the cells)” value in the data set with E14 dopamine neurons is reported as “but not ^125I-CDNF is efficiently internalized”.

B1: KYDKQIDLSTVDLKKLRVKELKKILDDWGETCKGCAEKSDYIRKINELMPKYAPKAASARTDL (protein, listed as Homo sapiens)
chain: KYDKQIDLSTVDLKKLRVKELKKILDDWGETCKGCAEKSDYIRKINELMPKYAPKAASARTDL
In the case of B1, the entries for the “protection of dopaminergic neurons in culture (result in words)” value in the data set on dopamine neurons and in the data set on dopamine neurons (listed as C-terminal MANF fragment) were “protects” and “potently protected”, respectively. For the same molecule, the “mouse beta cell proliferation (incorporation of Click EdU)” value in data set [1] is “stimulates”. Further, the blood-brain-barrier penetration entry in data set [2] is reported as “capable of penetrating”.
